Measured values published in ChEMBL document CHEMBL6092166, “Design, synthesis and enzymatic inhibition evaluation of novel 4-hydroxy Pd-C-Ⅲ derivatives as α-glucosidase and PTP1B dual-target inhibitors” (Eur J Med Chem, 2024).

How the values were obtained:
Alpha glucosidase [1] = biological target: T1, Alpha glucosidase (Homo sapiens, UniProt O43451+P10253+P14410+Q2M2H8); assay: Inhibition of alpha-glucosidase (unknown origin) using p-NPG as substrate preincubated for 15 mins followed by substrate addition for 30 mins by absorbance based analysis; assay type: protein assay
[2] = biological target: T2, Tyrosine-protein phosphatase non-receptor type 1 (Homo sapiens, UniProt P18031); assay: Inhibition of PTP1B (unknown origin) using pNPP as substrate preincubated for 10 mins followed by substrate addition for 20 mins by absorbance based analysis
T2 sequence (P18031 whole entry): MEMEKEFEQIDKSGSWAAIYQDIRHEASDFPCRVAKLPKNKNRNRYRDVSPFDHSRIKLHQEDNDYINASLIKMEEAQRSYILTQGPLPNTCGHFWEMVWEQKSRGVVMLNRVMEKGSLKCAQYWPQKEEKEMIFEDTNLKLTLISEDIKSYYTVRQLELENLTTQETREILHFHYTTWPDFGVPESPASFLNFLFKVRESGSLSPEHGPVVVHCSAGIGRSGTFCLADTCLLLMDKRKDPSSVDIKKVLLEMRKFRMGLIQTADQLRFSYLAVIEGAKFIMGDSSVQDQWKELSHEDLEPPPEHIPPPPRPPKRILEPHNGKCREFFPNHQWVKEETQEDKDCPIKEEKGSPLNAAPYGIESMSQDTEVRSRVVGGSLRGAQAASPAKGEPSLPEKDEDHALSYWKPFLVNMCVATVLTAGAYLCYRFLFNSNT

Alpha glucosidase [3] = biological target: T1, Alpha glucosidase; assay: Inhibition of alpha-glucosidase (unknown origin) using p-NPG as substrate incubated for 15 mins by spectrophotometric analysis; assay type: protein assay

IC50 (Alpha glucosidase [1]) | IC50 [2] | IC50 (Alpha glucosidase [3]) | Compound
99 µM | – | – | O=C(OCCOc1ccc2ccc(=O)oc2c1)c1ccc(Cl)cc1Cl
> 300 µM | – | – | CCN(CC)c1ccc(/C=C/C(=O)OCCOc2ccc3ccc(=O)oc3c2)cc1
– | 10.8 µM | 85.8 µM | CC(C)c1cc2cc3ccc(=O)oc3cc2o1
– | 58.9 µM | 65.3 µM | CC1(C)Oc2cc3oc(=O)ccc3cc2C[C@@H]1O [DECURSINOL]
283.2 µM | – | – | O=C(/C=C/c1ccc(Cl)cc1)OCCOc1ccc2ccc(=O)oc2c1
263.2 µM | – | – | O=C(/C=C/c1ccc(Br)cc1)OCCOc1ccc2ccc(=O)oc2c1
> 300 µM | – | – | O=C(/C=C/c1cccc(F)c1)OCCOc1ccc2ccc(=O)oc2c1
> 300 µM | – | – | O=C(/C=C/c1cccc(C(F)(F)F)c1)OCCOc1ccc2ccc(=O)oc2c1
299.7 µM | – | – | O=C(/C=C/c1ccccc1[N+](=O)[O-])OCCOc1ccc2ccc(=O)oc2c1
> 300 µM | – | – | Cc1cc(=O)oc2c(C)c(OCCOC(=O)/C=C/c3ccc(Cl)cc3Cl)ccc12
258.7 µM | – | – | O=C(/C=C/c1ccccc1Cl)OCCOc1ccc2ccc(=O)oc2c1
> 300 µM | – | – | O=C(OCCCCOc1ccc2ccc(=O)oc2c1)c1ccc(Cl)cc1Cl
– | 8 µM | 172.1 µM | O=C(O)c1cc2ccc(=O)oc2cc1O
– | 11.2 µM | 79.1 µM | CC(C)=CC(=O)O[C@@H]1c2cc3ccc(=O)oc3cc2OC(C)(C)[C@H]1OC(=O)C=C(C)C
116.5 µM | – | – | O=C(/C=C/c1ccc(Cl)cc1Cl)OCCOc1ccc2ccc(=O)oc2c1
> 300 µM | – | – | COc1ccc(/C=C/C(=O)OCCOc2ccc3ccc(=O)oc3c2)cc1OC
